Measured values as given in patent publication US20240368177A1, “5-AMINO-6,8-DIHYDRO-1H-FURO[3,4-d]PYRROLO[3,2-b]PYRIDINE-2-CARBOXAMIDE DERIVATIVES AS MTA-COOPERATIVE INHIBITORS OF PRMT5” (BeiGene Switzerland GmbH, priority 2023, published 2024).

Experiments:
HCT116-MTAP-KO = test: Cell killing in HCT116 isogenic pair (Cell Titer-Glo viability), MTAP knock-out cells; type: cell-based, human; details: Homo sapiens, HCT-116, 144 h, 6 days incubation, 0-10 μM, * = more than 50% viability inhibition at tested concentration without a full curve
Text: (§1) HCT116 cell line (ATCC, CCL-247) was isolated from the colon of an adult with colon cancer. It has a mutation in codon 13 of the ras proto-oncogene and can be used as a positive control for PCR assays of mutation in this codon. HCT116-MTAP-KO was knocked-out-MTAP-gene based HCT116, and a single clone was passed for this assay. HCT116-mock-RNA-KO was knocked-out-mock-gene based HCT116 with MTAP wildtype genotype. The base medium for HCT116 isogenic pair is RPMI 1640, HEPES (Gibco, 22400105). To make the complete growth medium, added the following components to the base medium: fetal bovine serum to a final concentration of 10% (Gibco, 10099-141C). The cell line was grown in a humidified 5% CO2 atmosphere at 37° C. and regularly tested for the presence of mycoplasma with MpcoAlert™ PLUS Mycoplasma Detection Kit (Lonzak LT07-710).
(§2) • Seeded HCT116-mock-RNA-KO (4E2/well) or HCT116-MTAP-KO (4E2/well) cells into a 96-well plate (Greiner: 655090), 100 μL/well. • Incubated at 37° C., 5% CO2, overnight. • Added 50 μL fresh growth medium containing serial dilution of test compounds for a final test compound concentration of 0-10 μM to each well. • Incubated at 37° C., 5% CO2, 6 days. • The cell viability was detected by Cell Titer-Glo (Promega, G7573). Added 70 μL of CeliTiter-Glo® reagent in each well. • Incubated at room temperature for 10 minutes to stabilize luminescent signal. • Analyzed with Microplate Reader (TECAN, SPARK) and fit IC50 using Prism® 9.

HCT116-mock-RNA-KO = test: Cell killing in HCT116 isogenic pair (Cell Titer-Glo viability), mock knock-out cells with MTAP wildtype genotype; type: cell-based, human; details: Homo sapiens, HCT-116, 144 h, 6 days incubation, 0-10 μM
Text: as §1, §2

## C[C@H](c1ncccn1)N(Cc1ncc(Br)cc1F)C(=O)c1cc2nc(N)c3c(c2[nH]1)COC3 [Example 41, (R)-5-amino-N-((5-bromo-3-fluoropyridin-2-yl)methyl)-N-(1-(pyrimidin-2-yl)ethyl)-6,8-dihydro-1H-furo[3,4-d]pyrrolo[3,2-b]pyridine-2-carboxamide]
HCT116-MTAP-KO
  IC50: 6.6 nM
HCT116-mock-RNA-KO
  IC50: 586 nM

## Nc1nc2cc(C(=O)N(Cc3ncccn3)Cc3ncc(C(F)(F)F)cc3F)[nH]c2c2c1COC2 [Example 42, 5-amino-N-((3-fluoro-5-(trifluoromethyl)pyridin-2-yl)methyl)-N-(pyrimidin-2-ylmethyl)-6,8-dihydro-1H-furo[3,4-d]pyrrolo[3,2-b]pyridine-2-carboxamide]
HCT116-MTAP-KO
  IC50: 24 nM
HCT116-mock-RNA-KO
  IC50: 2500 nM

## N#Cc1cc(F)c(CN(Cc2ncccc2F)C(=O)c2cc3nc(N)c4c(c3[nH]2)COC4)c(F)c1 [Example 43, 5-amino-N-(4-cyano-2,6-difluorobenzyl)-N-((3-fluoropyridin-2-yl)methyl)-6,8-dihydro-1H-furo[3,4-d]pyrrolo[3,2-b]pyridine-2-carboxamide]
HCT116-MTAP-KO
  IC50: 2.9 nM
HCT116-mock-RNA-KO
  IC50: 207 nM

## COC[C@@H](C)N(Cc1ncc(C(F)(F)F)cc1F)C(=O)c1cc2nc(N)c3c(c2[nH]1)COC3 [Example 44, (R)-5-amino-N-((3-fluoro-5-(trifluoromethyl)pyridin-2-yl)methyl)-N-(1-methoxypropan-2-yl)-6,8-dihydro-1H-furo[3,4-d]pyrrolo[3,2-b]pyridine-2-carboxamide]
HCT116-MTAP-KO
  IC50: 8.2 nM
HCT116-mock-RNA-KO
  IC50: 568 nM

## COC[C@@H](C)N(Cc1ccc(Br)cn1)C(=O)c1cc2nc(N)c3c(c2[nH]1)COC3 [Example 45, (R)-5-amino-N-((5-bromopyridin-2-yl)methyl)-N-(1-methoxypropan-2-yl)-6,8-dihydro-1H-furo[3,4-d]pyrrolo[3,2-b]pyridine-2-carboxamide]
HCT116-MTAP-KO
  IC50: 7.2 nM
HCT116-mock-RNA-KO
  IC50: 856 nM

## COC[C@@H](C)N(Cc1c(F)cc(C#N)cc1F)C(=O)c1cc2nc(N)c3c(c2[nH]1)COC3 [Example 46, (R)-5-amino-N-(4-cyano-2,6-difluorobenzyl)-N-(1-methoxypropan-2-yl)-6,8-dihydro-1H-furo[3,4-d]pyrrolo[3,2-b]pyridine-2-carboxamide]
HCT116-MTAP-KO
  IC50: 9 nM
HCT116-mock-RNA-KO
  IC50: 854 nM

## Nc1nc2cc(C(=O)N(Cc3ncccc3F)Cc3c(F)cc(F)cc3F)[nH]c2c2c1COC2 [Example 47, 5-amino-N-((3-fluoropyridin-2-yl)methyl)-N-(2,4,6-trifluorobenzyl)-6,8-dihydro-1H-furo[3,4-d]pyrrolo[3,2-b]pyridine-2-carboxamide]
HCT116-MTAP-KO
  IC50: 4.4 nM
HCT116-mock-RNA-KO
  IC50: 605 nM

## C[C@H](c1ncccn1)N(Cc1ccc(C2CC2)cn1)C(=O)c1cc2nc(N)c3c(c2[nH]1)COC3 [Example 48, (R)-5-amino-N-((5-cyclopropylpyridin-2-yl)methyl)-N-(1-(pyrimidin-2-yl)ethyl)-6,8-dihydro-1H-furo[3,4-d]pyrrolo[3,2-b]pyridine-2-carboxamide]
HCT116-MTAP-KO
  IC50: 8.4 nM
HCT116-mock-RNA-KO
  IC50: 625 nM

## COC[C@@H](C)N(Cc1ncc(Br)cc1F)C(=O)c1cc2nc(N)c3c(c2[nH]1)COC3 [Example 49, (R)-5-amino-N-((5-bromo-3-fluoropyridin-2-yl)methyl)-N-(1-methoxypropan-2-yl)-6,8-dihydro-1H-furo[3,4-d]pyrrolo[3,2-b]pyridine-2-carboxamide]
HCT116-MTAP-KO
  IC50: 6.1 nM
HCT116-mock-RNA-KO
  IC50: 835 nM

## C[C@H]1OCc2c1c(N)nc1cc(C(=O)N(Cc3ccc(Br)cn3)Cc3ncccc3F)[nH]c21 [Example 50, (R)-5-amino-N-((5-bromopyridin-2-yl)methyl)-N-((3-fluoropyridin-2-yl)methyl)-6-methyl-6,8-dihydro-1H-furo[3,4-d]pyrrolo[3,2-b]pyridine-2-carboxamide]
HCT116-MTAP-KO
  IC50: 8.6 nM
HCT116-mock-RNA-KO
  IC50: 1360 nM

## C[C@H](c1ncccn1)N(Cc1ccc(I)cn1)C(=O)c1cc2nc(N)c3c(c2[nH]1)COC3 [Example 51, (R)-5-amino-N-((5-iodopyridin-2-yl)methyl)-N-(1-(pyrimidin-2-yl)ethyl)-6,8-dihydro-1H-furo[3,4-d]pyrrolo[3,2-b]pyridine-2-carboxamide]
HCT116-MTAP-KO
  IC50: 7.8 nM
HCT116-mock-RNA-KO
  IC50: 558 nM

## C[C@H](c1ncccn1)N(Cc1ncc(C2CC2)cc1F)C(=O)c1cc2nc(N)c3c(c2[nH]1)COC3 [Example 52, (R)-5-amino-N-((5-cyclopropyl-3-fluoropyridin-2-yl)methyl)-N-(1-(pyrimidin-2-yl)ethyl)-6,8-dihydro-1H-furo[3,4-d]pyrrolo[3,2-b]pyridine-2-carboxamide]
HCT116-MTAP-KO
  IC50: 4.6 nM
HCT116-mock-RNA-KO
  IC50: 419 nM

## COC[C@@H](C)N(Cc1cnc(C2CC2)cn1)C(=O)c1cc2nc(N)c3c(c2[nH]1)COC3 [Example 53, (R)-5-amino-N-((5-cyclopropylpyrazin-2-yl)methyl)-N-(1-methoxypropan-2-yl)-6,8-dihydro-1H-furo[3,4-d]pyrrolo[3,2-b]pyridine-2-carboxamide]
HCT116-MTAP-KO
  IC50: 34 nM
HCT116-mock-RNA-KO
  IC50: > 10000 nM

## CCN(C(=O)c1cc2nc(N)c3c(c2[nH]1)COC3)[C@@H]1COCc2cc(C(F)(F)F)ccc21 [Example 54, (S)-5-amino-N-ethyl-N-(7-(trifluoromethyl)isochroman-4-yl)-6,8-dihydro-1H-furo[3,4-d]pyrrolo[3,2-b]pyridine-2-carboxamide]
HCT116-MTAP-KO
  IC50: 12 nM
HCT116-mock-RNA-KO
  IC50: 1360 nM

## CCN(C(=O)c1cc2nc(N)c3c(c2[nH]1)COC3)[C@H]1COCc2cc(C(F)(F)F)ccc21 [Example 55, (R)-5-amino-N-ethyl-N-(7-(trifluoromethyl)isochroman-4-yl)-6,8-dihydro-1H-furo[3,4-d]pyrrolo[3,2-b]pyridine-2-carboxamide]
HCT116-MTAP-KO
  IC50: 1640 nM
HCT116-mock-RNA-KO
  IC50: > 10000 nM

## COC[C@@H](C)N(Cc1ncc(C2CC2)cc1F)C(=O)c1cc2nc(N)c3c(c2[nH]1)COC3 [Example 56, (R)-5-amino-N-((5-cyclopropyl-3-fluoropyridin-2-yl)methyl)-N-(1-methoxypropan-2-yl)-6,8-dihydro-1H-furo[3,4-d]pyrrolo[3,2-b]pyridine-2-carboxamide]
HCT116-MTAP-KO
  IC50: 5 nM
HCT116-mock-RNA-KO
  IC50: 146 nM

## C[C@H]1OC[C@H](N(C)C(=O)c2cc3nc(N)c4c(c3[nH]2)COC4)c2ccc(C(F)(F)F)cc21 [Example 57, 5-amino-N-methyl-N-((1R,4R)-1-methyl-7-(trifluoromethyl)isochroman-4-yl)-6,8-dihydro-1H-furo[3,4-d]pyrrolo[3,2-b]pyridine-2-carboxamide]
HCT116-MTAP-KO
  IC50: 958 nM
HCT116-mock-RNA-KO
  IC50: > 10000 nM

## C[C@@H]1OC[C@H](N(C)C(=O)c2cc3nc(N)c4c(c3[nH]2)COC4)c2ccc(C(F)(F)F)cc21 [Example 58, 5-amino-N-methyl-N-((1S,4R)-1-methyl-7-(trifluoromethyl)isochroman-4-yl)-6,8-dihydro-1H-furo[3,4-d]pyrrolo[3,2-b]pyridine-2-carboxamide]
HCT116-MTAP-KO
  IC50: 1080 nM
HCT116-mock-RNA-KO
  IC50: > 10000 nM

## C[C@@H]1OC[C@@H](N(C)C(=O)c2cc3nc(N)c4c(c3[nH]2)COC4)c2ccc(C(F)(F)F)cc21 [Example 59, 5-amino-N-methyl-N-((1S,4S)-1-methyl-7-(trifluoromethyl)isochroman-4-yl)-6,8-dihydro-1H-furo[3,4-d]pyrrolo[3,2-b]pyridine-2-carboxamide]
HCT116-MTAP-KO
  IC50: 110 nM
HCT116-mock-RNA-KO
  IC50: > 10000 nM

## C[C@H]1OC[C@@H](N(C)C(=O)c2cc3nc(N)c4c(c3[nH]2)COC4)c2ccc(C(F)(F)F)cc21 [Example 60, 5-amino-N-methyl-N-((1R,4S)-1-methyl-7-(trifluoromethyl)isochroman-4-yl)-6,8-dihydro-1H-furo[3,4-d]pyrrolo[3,2-b]pyridine-2-carboxamide]
HCT116-MTAP-KO
  IC50: 7.3 nM
HCT116-mock-RNA-KO
  IC50: 857 nM

## C[C@@H](c1cnccn1)N(Cc1ncc(Br)cc1F)C(=O)c1cc2nc(N)c3c(c2[nH]1)COC3 [Example 61, (S)-5-amino-N-((5-bromo-3-fluoropyridin-2-yl)methyl)-N-(1-(pyrazin-2-yl)ethyl)-6,8-dihydro-1H-furo[3,4-d]pyrrolo[3,2-b]pyridine-2-carboxamide]
HCT116-MTAP-KO
  IC50: 808 nM
HCT116-mock-RNA-KO
  IC50: > 10000 nM

## C[C@H](c1cnccn1)N(Cc1ncc(Br)cc1F)C(=O)c1cc2nc(N)c3c(c2[nH]1)COC3 [Example 62, (R)-5-amino-N-((5-bromo-3-fluoropyridin-2-yl)methyl)-N-(1-(pyrazin-2-yl)ethyl)-6,8-dihydro-1H-furo[3,4-d]pyrrolo[3,2-b]pyridine-2-carboxamide]
HCT116-MTAP-KO
  IC50: 17 nM
HCT116-mock-RNA-KO
  IC50: 2080 nM

## CN(C(=O)c1cc2nc(N)c3c(c2[nH]1)COC3)[C@@H]1COCc2cc(Br)ccc21 [Example 63, (S)-5-amino-N-(7-bromoisochroman-4-yl)-N-methyl-6,8-dihydro-1H-furo[3,4-d]pyrrolo[3,2-b]pyridine-2-carboxamide]
HCT116-MTAP-KO
  IC50: 22 nM
HCT116-mock-RNA-KO
  IC50: 2500 nM

## CN(C(=O)c1cc2nc(N)c3c(c2[nH]1)COC3)[C@H]1COCc2cc(Br)ccc21 [Example 64, (R)-5-amino-N-(7-bromoisochroman-4-yl)-N-methyl-6,8-dihydro-1H-furo[3,4-d]pyrrolo[3,2-b]pyridine-2-carboxamide]
HCT116-MTAP-KO
  IC50: 362 nM
HCT116-mock-RNA-KO
  IC50: > 10000 nM
